Tests used:
[1] = system: SK-BR-3 cells (HER2 overexpressing cell line); assay: SK-BR-3 cell proliferation inhibitory activity (CellTiter-Glo, 120 hours); assay type: cell-based; details: Homo sapiens
Protocol: (§1) To evaluate the cell proliferation inhibitory activity of the compound according to the present invention on HER2 and EGFR kinases, the following method was performed using HER2 overexpressing cell lines (SK-BR-3, BT-474, and N-87) and EGFR expressing cell line (HaCaT).
(§2) McCOY'S 5A supplemented with 10% FBS was used for SK-BR-3 cells, RPMI-1640 medium supplemented with 20% FBS was used for BT-474 cancer cells, and RPMI-1640 medium supplemented with 10% FBS was used for N-87 cancer cells. DMEM supplemented with 10% FBS was used for HaCaT cells.
(§3) For SK-BR-3 cells, 5000 cells were aliquoted into each well of a white clear bottom 96 well plate (Corning) 48 hours before treatment with the compounds of Examples. For BT-474 cells, 5000 cells were aliquoted into each well of a white clear bottom 96 well plate (Corning) 48 hours before treatment with the compounds of Examples. For N-87 cells, 5000 cells were aliquoted into each well of a white clear bottom 96 well plate (Corning) 24 hours before treatment with the compounds of Examples. For HaCaT cells, 3000 cells were aliquoted into each well of a white clear bottom 96 well plate (Corning) 24 hours before treatment with the compounds of Examples. For SK-BR-3 cells and BT-474 cells, the compounds of Examples were diluted in dimethyl sulfoxide (three-fold dilution, a total of 11 concentrations) and injected each in an amount of 1 μl to a final concentration of 0.2 nM to 10 μM. For N-87 cells, the compounds of Examples were diluted in dimethyl sulfoxide (five-fold dilution, a total of 11 concentrations) and injected each in an amount of 0.5 μl to a final concentration of […] to 5 μM. For HaCaT cells, the compounds of Examples were diluted in dimethyl sulfoxide (three-fold dilution, a total of 11 concentrations) and injected each in an amount of 0.5 μl to a final concentration of 0.8 nM to 45 μM. For the measurement of living cells, the cells were stored at room temperature for 10 minutes using CellTiter-Glo cell viability reagent (Promega) after a certain period of time (SK-BR-3: 120 hours, BT-474: 120 hours, N-87: 72 hours, and HaCaT: 72 hours) post treatment with the compounds of Examples, and the luminescence intensity thereof was measured using a reader (SynergyNeo, Biotek). Each test was repeated three times.
(§4) The result values were calculated as a cell growth rate (%) compared to those of the control group. A graph was created using the GraphPad Prism version 5.0 program, and GI50 values were calculated.

[2] = system: HaCaT cells (EGFR expressing cell line); assay: HaCaT cell proliferation inhibitory activity (CellTiter-Glo, 72 hours); assay type: cell-based; details: Homo sapiens
Protocol: as §1, §2, §3, §4

Structure (SMILES)	GI50 [1]	GI50 [2]
C=CC(=O)N1CCC(Oc2cc3c(Nc4cc(-c5cccc(Cl)c5F)ccc4OC)ncnc3cc2OC)CC1 [Example 135, 1-(4-((4-((3′-chloro-2′-fluoro-4-methoxy-[1,1′-biphenyl]-3-yl)amino)-7-methoxy-quinazolin-6-yl)oxy)piperidin-1-yl)prop-2-en-1-one]	150 to 1000 nM	150 to 1000 nM
C=CC(=O)N1CCC(Oc2cc3c(Nc4cc(-c5ccc(F)cc5)ccc4OC)ncnc3cc2OC)C1 (stereo not drawn) [Example 60, 1-(3-((4-((4′-fluoro-4-methoxy-[1,1′-biphenyl]-3-yl)amino)-7-methoxy-quinazolin-6-yl)oxy)pyrrolidin-1-yl)prop-2-en-1-one]	≤ 150 nM	150 to 1000 nM
C=CC(=O)N1CC(Oc2cc3c(Nc4cc(-c5ccnc6c(NC(=O)C7CC7)snc56)ccc4OC)ncnc3cc2OC)C1 [Example 234, N-(7-(3-((6-((1-acryloylazetidin-3-yl)oxy)-7-methoxyquinazolin-4-yl)amino)-4-methoxyphenyl)isothiazolo[4,3-b]pyridin-3-yl)cyclopropancarboxamide]	150 to 1000 nM	150 to 1000 nM
C=CC(=O)Nc1cc2c(Nc3cc(-c4ccn5ncnc5c4)ccc3OC)ncnc2cc1OC [Example 287, N-(4-((5-([1,2,4]triazolo[1,5-a]pyridin-7-yl)-2-methoxyphenyl)amino)-7-methoxyquinazolin-6-yl)acrylamide]	≤ 150 nM	> 1000 nM
C=CC(=O)N1CCC(Oc2cc3c(Nc4cc(-c5cccc(C#N)c5F)ccc4OC)ncnc3cc2OC)CC1 [Example 134, 3′-((6-((1-acryloyl-piperidin-4-yl)oxy)-7-methoxy-quinazolin-4-yl)amino)-2-fluoro-4′-methoxy-[1,1′-biphenyl]-3-carbonitrile]	150 to 1000 nM	150 to 1000 nM
C=CC(=O)N1CCC(Oc2cc3c(Nc4cc(-c5ccc(F)nc5F)ccc4OC)ncnc3cc2OC)CC1 [Example 147, 1-(4-((4-((5-(2,6-difluoropyridin-3-yl)-2-methoxyphenyl)amino)-7-methoxy-quinazolin-6-yl)oxy)piperidin-1-yl)prop-2-en-1-one]	150 to 1000 nM	150 to 1000 nM
C=CC(=O)N1CCC(Oc2cc3c(Nc4cc(-c5ccco5)c(C)cc4OC)ncnc3cc2OC)CC1 [Example 96, 1-(4-((4-((5-(furan-2-yl)-2-methoxy-4-methylphenyl)amino)-7-methoxy-quinazolin-6-yl)oxy)piperidin-1-yl)prop-2-en-1-one]	150 to 1000 nM	≤ 150 nM
C=CC(=O)N1CCC(Oc2cc3c(Nc4cc(-c5cccs5)c(C)cc4OC)ncnc3cc2OC)CC1 [Example 95, 1-(4-((7-methoxy-4-((2-methoxy-4-methyl-5-(thiophen-2-yl))amino)quinazolin-6-yl)oxy)piperidin-1-yl)prop-2-en-1-one]	150 to 1000 nM	≤ 150 nM
C=CC(=O)N1C2CCC1CC(Oc1cc3c(Nc4cc(-c5ccco5)ccc4OC)ncnc3cc1OC)C2 (stereo not drawn) [Example 166, 1-(3-((4-((5-(furan-2-yl)-2-methoxyphenyl)amino)-7-methoxy-quinazolin-6-yl)oxy)-8-azabicyclo [3.2.1]octan-8-yl)prop-2-en-1-one]	≤ 150 nM	≤ 150 nM
C=CC(=O)Nc1cc2c(Nc3cc(-c4ccc5occc5c4)ccc3OC)ncnc2cc1OC [Example 288, N-(4-((5-(benzofuran-5-yl)-2-methoxyphenyl)amino)-7-methoxyquinazolin-6-yl)acrylamide]	150 to 1000 nM	> 1000 nM
C=CC(=O)N1CC(Oc2cc3c(Nc4cc(-c5ccn6ncnc6c5)ccc4OCC)ncnc3cc2OC)C1 [Example 56, 1-(3-((4-((5-([1,2,4]triazolo [1,5-a]pyridin-7-yl)-2-ethoxyphenyl)amino)-7-methoxy-quinazolin-6-yl)oxy)azetidin-1-yl)prop-2-en-1-one]	150 to 1000 nM	> 1000 nM
C=CC(=O)N1CCC(Oc2cc3c(Nc4cc(-c5ccco5)ccc4OC)ncnc3cc2OC)CC1C(F)(F)F (stereo not drawn) [Example 164, 1-(4-((4-((5-(furan-2-yl)-2-methoxyphenyl)amino)-7-methoxy-quinazolin-6-yl)oxy)-2-(trifluoromethyl)piperidin-1-yl)prop-2-en-1-one]	150 to 1000 nM	≤ 150 nM
C=CC(=O)N1CC(Oc2cc3c(Nc4cc(-c5ccc(Cl)cc5F)ccc4OC)ncnc3cc2OC)C1 [Example 15, 1-(3-((4-((4′-chloro-2′-fluoro-4-methoxy-[1,1′-biphenyl]-3-yl)amino)-7-methoxy-quinazolin-6-yl)oxy)azetidin-1-yl)prop-2-en-1-one]	≤ 150 nM	≤ 150 nM
C=CC(=O)N1CC[C@@H](Oc2cc3c(Nc4cc(-c5ccco5)ccc4OC)ncnc3cc2OC)[C@H](F)C1 (relative stereo) [Example 179, 1-(trans-3-fluoro-4-((4-((5-(furan-2-yl)-2-methoxyphenyl)amino)-7-methoxy-quinazolin-6-yl)oxy)piperidin-1-yl)prop-2-en-1-one]	≤ 150 nM	≤ 150 nM
C=CC(=O)N1CC(Oc2cc3c(Nc4cc(-c5ccco5)ccc4OC4CCOCC4)ncnc3cc2OC)C1 [Example 249, 1-(3-((4-((5-(furan-2-yl)-2-((tetrahydro-2H-pyran-4-yl)oxy)phenyl)amino)-7-methoxyquinazolin-6-yl)oxy)azetidin-1-yl)prop-2-en-1-one]	150 to 1000 nM	≤ 150 nM
C=CC(=O)N1CCCC(Oc2cc3c(Nc4cc(-c5ccco5)ccc4OC)ncnc3cc2OC)C1 (stereo not drawn) [Example 162, 1-(3-((4-((5-(furan-2-yl)-2-methoxyphenyl)amino)-7-methoxy-quinazolin-6-yl)oxy)piperidin-1-yl)prop-2-en-1-one]	> 1000 nM	150 to 1000 nM
C=CC(=O)N1CCC(Nc2cc3c(Nc4cc(-c5ccc(F)cc5F)ccc4OC)ncnc3cc2O[C@@H]2CCOC2)CC1 [Example 282, (R)-1-(4-((4-((2′,4′-difluoro-4-methoxy-[1,1′-biphenyl]-3-yl)amino)-7-((tetrahydrofuran-3-yl)oxy)quinazolin-6-yl)amino)piperidin-1-yl)prop-2-en-1-one]	≤ 150 nM	≤ 150 nM
C=CC(=O)N1CC(Oc2cc3c(Nc4cc(-c5cccc(F)c5)ccc4OC)ncnc3cc2OC)C1 [Example 8, 1-(3-((4-((3′-fluoro-4-methoxy-[1,1′-biphenyl]-3-yl)amino)-7-methoxy-quinazolin-6-yl)oxy)azetidin-1-yl)prop-2-en-1-one]	≤ 150 nM	≤ 150 nM
C=CC(=O)Nc1cc2c(Nc3cc(-c4ccco4)ccc3OC)ncnc2cc1OCCN1CCOCC1 [Example 271, N-(4-((5-(furan-2-yl)-2-methoxyphenyl)amino)-7-(2-morpholinoethoxy)quinazolin-6-yl)acrylamide]	≤ 150 nM	≤ 150 nM
C=CC(=O)N1CCC(Oc2cc3c(Nc4cc(-c5cccn6ccnc56)ccc4OC)ncnc3cc2OC)CC1 [Example 70, 1-(4-((4-((5-(imidazo[1,2-a]pyridin-8-yl)-2-methoxyphenyl)amino)-7-methoxy-quinazolin-6-yl)oxy)piperidin-1-yl)prop-2-en-1-one]	150 to 1000 nM	> 1000 nM
C=CC(=O)N1CCC(Oc2cc3c(Nc4cc(-c5cccc(N)c5)ccc4OC)ncnc3cc2OC)CC1 [Example 180, 1-(4-((4-((3′-amino-4-methoxy-[1,1′-biphenyl]-3-yl)amino)-7-methoxy-quinazolin-6-yl)oxy)piperidin-1-yl)prop-2-en-1-one]	150 to 1000 nM	> 1000 nM
C=CC(=O)N1CC(Oc2cc3c(Nc4cc(-c5cccs5)ccc4OCC)ncnc3cc2OC)C1 [Example 54, 1-(3-((4-((2-ethoxy-5-(thiophen-2-yl)phenyl)amino)-7-methoxy-quinazolin-6-yl)oxy)azetidin-1-yl)prop-2-en-1-one]	≤ 150 nM	≤ 150 nM
C=CC(=O)N1CCC(Nc2cc3c(Nc4cc(-c5ccco5)ccc4OC)ncnc3cc2O[C@@H]2CCOC2)CC1 [Example 280, (R)-1-(4-((4-((5-(furan-2-yl)-2-methoxyphenyl)amino)-7-((tetrahydrofuran-3-yl)oxy)quinazolin-6-yl)amino)piperidin-1-yl)prop-2-en-1-one]	≤ 150 nM	≤ 150 nM
C=CC(=O)N1CC(Oc2cc3c(Nc4cc(-c5cccs5)c(C)cc4OC)ncnc3cc2OC)C1 [Example 52, 1-(3-((7-methoxy-4-((2-methoxy-4-methyl-5-(thiophen-2-yl)phenyl)amino)quinazolin-6-yl)oxy)azetidin-1-yl)prop-2-en-1-one]	≤ 150 nM	≤ 150 nM

Source: US20240246940A1, “HETEROARYL DERIVATIVE COMPOUND AND USE THEREOF” (VORONOI INC., priority 2021, published 2024)
